Test results from BindingDB's records for doi:10.1016/j.bmcl.2013.03.093 (Rhône-Poulenc Rorer, 2013).

Test: Antagonist activity at CRTh2 receptor in human whole blood assessed as inhibition of PGD2-induced eosinophil shape change preincubated for 10 mins followed by PGD2 addition measured after 4 mins by side scatter analysis

SMILES | IC50 [nM]
Cc1c(CC(=O)O)c(=O)[nH]n1Cc1ccccc1S(=O)(=O)c1ccccc1 | 1000
Cc1nn(-c2cccc(NC(=O)[C@H]3C[C@@H]3c3ccccc3)c2)c(C)c1CC(=O)O | 2100
Cc1c(CC(=O)O)c(-c2ccc(Cl)cc2)nn1Cc1ccccc1S(=O)(=O)c1ccccc1 | 8100
Cc1nn(Cc2ccccc2S(=O)(=O)c2ccccc2)c(C)c1CC(=O)O | 1700
Cc1c(CC(=O)O)c(-c2ccccc2)nn1Cc1ccccc1S(=O)(=O)c1ccccc1 | 2400
